Source: patent US20050009005A1, “Methods of using quantitative lipid metabolome data” (Lipomics Technologies, Inc., priority 2001, published 2005)

Columns and labels:
[1] = Body and adipose tissue weight of CL316,243-treated mice (trial 2, FIG. 3); type: in vivo
Text: FIG. 3 is a pair of bar graphs showing the body (FIG. 3a) and adipose (FIG. 3b) weights of mice treated with CL316,243 (hatched bars), and corresponding controls(solid bars).
In trial 2, male, inbred NON mice were fed a control with or without the presence of the β-3 adrenergic agonist CL316,243 for four weeks (at 0.001% CL316,243 by weight in the dietary chow).
In both studies, five treated and five control mice were used. Following the treatments and the killing of the mice, tissues and plasma were taken, chilled to −80 ° C. and shipped to the analysis laboratory at Lipomics Technologies in a frozen state.
Tables 7 and 8 show the concentrations of lipid metabolites present in adipose, plasma, heart and liver tissues in mice treated with CL3 16,243 and their controls. In Tables 5 and 7, the data are expressed as nanomoles per gram of tissue or plasma. In tables 6 and 8, the data are expressed as a percentage of total fatty acids within each lipid class.

[2] = patients taking rosiglitazone; Fuchtenbebusch et al. 2000; cited from earlier work

Structure (SMILES)	mouse body weight ([1]; CL316,243 4 weeks vs controls (FIG. 3a))	adipose tissue weight ([1]; CL316,243 4 weeks vs controls (FIG. 3b))	body weight of patients [2]
C[C@H](Cc1ccc2c(c1)OC(C(=O)[O-])(C(=O)[O-])O2)NC[C@H](O)c1cccc(Cl)c1.[Na+].[Na+] [CL316,243]	significant decrease	significant decrease	–
CN(CCOc1ccc(CC2SC(=O)NC2=O)cc1)c1ccccn1 (stereo not drawn) [rosiglitazone]	–	–	gain weight
